Tests used:
[1] = molecular target: T1, Chymotrypsin-C (Homo sapiens) (UniProt Q99895); test: Compound was evaluated for inhibition of Serine protease chymotrypsin at […]
T1 sequence (whole entry): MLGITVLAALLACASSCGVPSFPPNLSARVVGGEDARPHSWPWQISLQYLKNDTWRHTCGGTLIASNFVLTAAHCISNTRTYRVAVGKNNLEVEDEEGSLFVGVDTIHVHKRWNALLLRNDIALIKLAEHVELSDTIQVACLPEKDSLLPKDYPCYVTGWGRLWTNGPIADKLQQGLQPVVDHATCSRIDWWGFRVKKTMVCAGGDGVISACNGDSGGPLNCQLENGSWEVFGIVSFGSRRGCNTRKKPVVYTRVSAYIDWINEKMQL

Prothrombin = Prothrombin (Homo sapiens, UniProt P00734); test: Compound was evaluated for inhibition of Thrombin
Serine protease 1 = molecular target: T2, Serine protease 1 (Bos taurus, UniProt P00760); test: Compound was evaluated for inhibition of Trypsin
T2 sequence (P00760 whole entry): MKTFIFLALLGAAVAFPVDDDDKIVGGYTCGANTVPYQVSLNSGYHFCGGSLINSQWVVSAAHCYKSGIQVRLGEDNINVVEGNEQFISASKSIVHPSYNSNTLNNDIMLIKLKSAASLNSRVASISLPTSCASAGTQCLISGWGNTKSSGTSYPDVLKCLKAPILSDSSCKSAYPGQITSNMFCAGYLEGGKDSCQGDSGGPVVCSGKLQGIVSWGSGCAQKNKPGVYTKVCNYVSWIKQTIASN

Coagulation factor X [2] = molecular target: T3, Coagulation factor X (Homo sapiens, UniProt P00742); test: Compound was evaluated for inhibition of Coagulation factor X at 1.6 uM
[3] = molecular target: T4, Serine protease 1 (Bos taurus) (UniProt P00760); test: Compound was evaluated for inhibition of Trypsin at 1.6 uM
T4 sequence (whole entry): T2 sequence (P00760 whole entry)

Coagulation factor X [4] = molecular target: T3, Coagulation factor X; test: Compound was evaluated for inhibition of Coagulation factor X at 7.5 uM
[5] = molecular target: T1, Chymotrypsin-C (Homo sapiens); test: Compound was evaluated for inhibition of Serine protease chymotrypsin at 15 uM
[6] = molecular target: T4, Serine protease 1 (Bos taurus); test: Compound was evaluated for inhibition of Trypsin at uM; conditions: concentration not given here
Coagulation factor X [7] = molecular target: T3, Coagulation factor X; test: Compound was evaluated for inhibition of Coagulation factor X
[8] = molecular target: T1, Chymotrypsin-C (Homo sapiens); test: Compound was evaluated for inhibition of Serine protease chymotrypsin at 1.7 uM
Coagulation factor X [9] = molecular target: T3, Coagulation factor X; test: Compound was evaluated for inhibition of Coagulation factor X at 1 uM
[10] = molecular target: T1, Chymotrypsin-C (Homo sapiens); test: Compound was evaluated for inhibition of Serine protease chymotrypsin at 1 uM
[11] = molecular target: T4, Serine protease 1 (Bos taurus); test: Compound was evaluated for inhibition of Trypsin at 1 uM
[12] = molecular target: T4, Serine protease 1 (Bos taurus); test: Compound was evaluated for inhibition of Trypsin at 15 uM
Coagulation factor X [13] = molecular target: T3, Coagulation factor X; test: Compound was evaluated for inhibition of Coagulation factor X at […]

T3 sequence (P00742 41-179 limits assumed): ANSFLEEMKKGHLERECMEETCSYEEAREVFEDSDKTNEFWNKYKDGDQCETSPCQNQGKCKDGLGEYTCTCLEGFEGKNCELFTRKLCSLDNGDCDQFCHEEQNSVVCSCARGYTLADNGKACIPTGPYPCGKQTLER
T3 sequence (P00742 235-488 limits assumed): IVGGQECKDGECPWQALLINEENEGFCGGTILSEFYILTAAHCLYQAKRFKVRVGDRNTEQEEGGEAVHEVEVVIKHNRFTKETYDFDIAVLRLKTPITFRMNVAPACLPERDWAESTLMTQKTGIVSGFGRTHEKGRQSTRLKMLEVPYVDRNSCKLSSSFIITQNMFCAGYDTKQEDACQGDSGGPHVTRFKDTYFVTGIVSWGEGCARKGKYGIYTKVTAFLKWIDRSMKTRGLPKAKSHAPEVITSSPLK

Cc1cc(OCc2cccc(C(=N)N)c2)cc(OS(=O)(=O)c2ccccc2Cl)c1
inhibition [1]: 0% | Ki (Prothrombin): 99 nM | Ki (Serine protease 1): 1500 nM

Cc1cc(OC[C@H]2CC[C@H](C(=N)N)CC2)cc(OS(=O)(=O)c2ccccc2Cl)c1
inhibition (Coagulation factor X [2]): 0% | Ki (Prothrombin): 2100 nM | inhibition [3]: 0%

Cc1cc(OCCCCN=C(N)N)cc(OS(=O)(=O)c2ccccc2Cl)c1
Ki (Serine protease 1): 42000 nM

Cc1cc(OCCCC(=N)N)cc(OS(=O)(=O)c2ccccc2Cl)c1
inhibition (Coagulation factor X [4]): 0% | inhibition [5]: 0% | Ki (Prothrombin): 460 nM | inhibition [6]: 0%

Cc1cc(OCc2ccc(C(=N)N)cc2)cc(OS(=O)(=O)c2ccccc2Cl)c1
Ki (Coagulation factor X [7]): 17000 nM | inhibition [8]: 0% | Ki (Prothrombin): 110 nM | Ki (Serine protease 1): 2700 nM

CC(=N)N1CCC(COc2cc(C)cc(OS(=O)(=O)c3ccccc3Cl)c2)CC1
inhibition (Coagulation factor X [9]): 0% | inhibition [10]: 0% | inhibition [11]: 0%

Cc1cc(OCCCCCC(=N)N)cc(OS(=O)(=O)c2ccccc2Cl)c1
Ki (Prothrombin): 69 nM | inhibition [12]: 0% | inhibition (Coagulation factor X [13]): 0%

Cc1cc(OCC2CCN(C(=N)N)CC2)cc(OS(=O)(=O)c2ccccc2Cl)c1
Ki (Coagulation factor X [7]): > 15000 nM | Ki (Serine protease 1): > 15000 nM
